From patent US20200297867A1, “SURFACE FUNCTIONALIZATION OF LIPOSOMES AND LIPOSOMAL SPHERICAL NUCLEIC ACIDS (SNAS)” (EXICURE,INC., priority 2016, published 2020)
Entries after “also recorded” stand apart in the source; their conditions may differ.

Columns and labels:
hTLR4 = molecular target: T1, hTLR4 (Homo sapiens, UniProt O00206+Q9Y6Y9); assay: Experiment 4: activation of HEK hTLR4 cells pre- and post-sterile filtration, QuantiBlue; assay type: cell-based; conditions: post-sterile filtration through 0.22 μm PES filter; max 15 μM GLA, 1:3 serial dilution, 7 dilutions; 24 hours
T1 construct: expressed in transfected cells; host or cells: HEK huTLR4 (HEK hTLR4) cells
T1 sequence (O00206 24-839): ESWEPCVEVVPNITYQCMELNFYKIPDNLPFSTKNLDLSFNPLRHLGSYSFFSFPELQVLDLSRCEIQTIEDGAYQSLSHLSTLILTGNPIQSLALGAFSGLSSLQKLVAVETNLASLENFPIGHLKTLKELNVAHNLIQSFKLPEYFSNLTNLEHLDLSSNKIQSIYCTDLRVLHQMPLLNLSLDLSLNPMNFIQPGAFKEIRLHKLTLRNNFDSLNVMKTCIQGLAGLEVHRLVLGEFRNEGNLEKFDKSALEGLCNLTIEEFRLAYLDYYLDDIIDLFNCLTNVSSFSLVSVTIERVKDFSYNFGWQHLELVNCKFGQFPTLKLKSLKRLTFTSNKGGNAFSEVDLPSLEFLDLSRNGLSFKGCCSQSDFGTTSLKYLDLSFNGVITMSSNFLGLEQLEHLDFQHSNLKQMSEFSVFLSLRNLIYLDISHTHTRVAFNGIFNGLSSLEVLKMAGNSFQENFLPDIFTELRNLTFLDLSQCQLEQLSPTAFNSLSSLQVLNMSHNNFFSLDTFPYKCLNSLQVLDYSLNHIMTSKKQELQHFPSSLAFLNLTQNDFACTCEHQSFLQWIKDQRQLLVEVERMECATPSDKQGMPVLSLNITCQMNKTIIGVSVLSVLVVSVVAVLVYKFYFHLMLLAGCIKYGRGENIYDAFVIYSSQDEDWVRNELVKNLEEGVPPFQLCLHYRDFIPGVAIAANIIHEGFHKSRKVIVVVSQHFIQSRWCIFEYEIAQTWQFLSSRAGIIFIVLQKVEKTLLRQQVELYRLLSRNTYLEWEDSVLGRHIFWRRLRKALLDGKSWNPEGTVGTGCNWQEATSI
T1 sequence (Q9Y6Y9 17-160 limits assumed): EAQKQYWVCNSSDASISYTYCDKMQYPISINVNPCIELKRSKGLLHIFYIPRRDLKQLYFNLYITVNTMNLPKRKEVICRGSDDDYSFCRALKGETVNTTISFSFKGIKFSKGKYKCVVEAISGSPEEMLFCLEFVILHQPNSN
Description: FIG. 4. […] HEK hTLR4 cells were treated with 15 μM of GLA (for each compound tested) with a 1:3 serial dilution for 7 dilutions.
GLA (Avanti Polar Lipids) was resuspended in dimethylsulfoxide (DMSO) at 1 mg/mL. GLA in DMSO was mixed with an aqueous solution of liposomes (L-GLA) or PBS (GLA alone) such that the final DMSO concentration was 2%. DMSO is miscible in aqueous solutions, and allows GLA to condense on the surface of SNAs as the organic solution is diluted. Modulation of GLA functionalized to the surface of liposomes can be achieved by adjusting the ratio of GLA to liposome. The DMSO was removed from the liposomal solution by diafiltration using tangential-flow filtration (TFF) with a hollow fiber filter (750 kDa cut-off). These liposomes which have been surface functionalized with GLA (with a loading of 50 molecules/liposome) may then be further surface modified with other molecules. L-GLA or GLA alone was then sterile filtered through a 0.22 μm PES sterile syringe filter (VWR) to remove any non-functionalized GLA or GLA aggregates. […]
QuantiBlue detection media was purchased from Invivogen. […] After development of color using the standard curve as a reference, the plate was read using a fluorescence plate reader (Synergy 4) at an absorbance of 650 nm.

[1] = Sterile filtration through 0.22 μm PES syringe filter; assay type: physicochemical; conditions: 0.22 μm sterile filter; inferred from HEK hTLR4 activity after filtration
Description: GLA (Avanti Polar Lipids) was resuspended in dimethylsulfoxide (DMSO) at 1 mg/mL. GLA in DMSO was mixed with an aqueous solution of liposomes (L-GLA) or PBS (GLA alone) such that the final DMSO concentration was 2%. DMSO is miscible in aqueous solutions, and allows GLA to condense on the surface of SNAs as the organic solution is diluted. Modulation of GLA functionalized to the surface of liposomes can be achieved by adjusting the ratio of GLA to liposome. The DMSO was removed from the liposomal solution by diafiltration using tangential-flow filtration (TFF) with a hollow fiber filter (750 kDa cut-off). These liposomes which have been surface functionalized with GLA (with a loading of 50 molecules/liposome) may then be further surface modified with other molecules. L-GLA or GLA alone was then sterile filtered through a 0.22 μm PES sterile syringe filter (VWR) to remove any non-functionalized GLA or GLA aggregates.
GLA alone was prepared using the same method used to prepare L-GLA but without the presence of liposomes. Free or unbound GLA will aggregate and cannot pass through a sterile filter.

CCCCCCCCCCCCCC(=O)O[C@H](CCCCCCCCCCC)CC(=O)N[C@H]1[C@H](OC[C@H]2O[C@H](O)[C@H](NC(=O)C[C@H](O)CCCCCCCCCCC)[C@@H](OC(=O)C[C@H](O)CCCCCCCCCCC)[C@@H]2O)O[C@H](CO)[C@@H](OP(=O)(O)O)[C@@H]1OC(=O)C[C@@H](CCCCCCCCCCC)OC(=O)CCCCCCCCCCCCC.N [GLA alone, glycopyranoside lipid A]
activation of HEK hTLR4 cells (hTLR4): failed to activate; also recorded: does not | passage through sterile filter [1]: removed by sterile filtration
